Data as given in the supplement of paper PMC10307832.

What was measured:
Experiment in all cases: relative viability (nuclei count vs DMSO), 5 days (fraction); higher = more cells survive
EHT 1864 + OSI-027 = compound: C1COCCN1CC2=CC(=O)C(=CO2)OCCCCCSC3=C4C=CC(=CC4=NC=C3)C(F)(F)F [EHT 1864] + COc1cccc2cc(-c3nc([C@H]4CC[C@H](C(=O)O)CC4)n4ncnc(N)c34)[nH]c12 [OSI-027] (partner 0.5 µM)
How it was run: (§1)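 The day after seeding in 1536-well plates, lung cancer cell lines were treated by pin tool with a single drug, or with a fixed anchor-drug dose together with five library-drug doses (not always all listed) in √10 steps. After 5 days, a combined fix-and-stain solution (final 0.05% Triton X-100, 1% formaldehyde, 1 ug/ml Hoechst) was added. Nuclei counted on 4× images gave relative viability as treated counts over vehicle counts, reported as the median of duplicate plates.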

EHT 1864 + Lapatinib = compound: C1COCCN1CC2=CC(=O)C(=CO2)OCCCCCSC3=C4C=CC(=CC4=NC=C3)C(F)(F)F [EHT 1864] + CS(=O)(=O)CCNCc1ccc(-c2ccc3ncnc(Nc4ccc(OCc5cccc(F)c5)c(Cl)c4)c3c2)o1 [Lapatinib] (partner 2 µM)
How it was run: as §1

EHT 1864 + Linsitinib = compound: C1COCCN1CC2=CC(=O)C(=CO2)OCCCCCSC3=C4C=CC(=CC4=NC=C3)C(F)(F)F [EHT 1864] + C[C@]1(O)C[C@@H](c2nc(-c3ccc4ccc(-c5ccccc5)nc4c3)c3c(N)nccn32)C1 [Linsitinib] (partner 1 µM)
How it was run: as §1

EHT 1864 + Alpelisib = compound: C1COCCN1CC2=CC(=O)C(=CO2)OCCCCCSC3=C4C=CC(=CC4=NC=C3)C(F)(F)F [EHT 1864] + Cc1nc(NC(=O)N2CCC[C@H]2C(N)=O)sc1-c1ccnc(C(C)(C)C(F)(F)F)c1 [Alpelisib] (partner 2 µM)
How it was run: as §1

Cell Line | relative viability (EHT 1864 + OSI-027; first compound 0.04 µM) | relative viability (EHT 1864 + OSI-027; first compound 0.1265 µM) | relative viability (EHT 1864 + OSI-027; first compound 0.4 µM) | relative viability (EHT 1864 + OSI-027; first compound 1.265 µM) | relative viability (EHT 1864 + OSI-027; first compound 4 µM) | relative viability (EHT 1864 + Lapatinib; first compound 0.04 µM) | relative viability (EHT 1864 + Lapatinib; first compound 0.1265 µM) | relative viability (EHT 1864 + Lapatinib; first compound 0.4 µM) | relative viability (EHT 1864 + Lapatinib; first compound 1.265 µM) | relative viability (EHT 1864 + Lapatinib; first compound 4 µM) | relative viability (EHT 1864 + Linsitinib; first compound 0.04 µM) | relative viability (EHT 1864 + Linsitinib; first compound 0.1265 µM) | relative viability (EHT 1864 + Linsitinib; first compound 0.4 µM) | relative viability (EHT 1864 + Linsitinib; first compound 1.265 µM) | relative viability (EHT 1864 + Linsitinib; first compound 4 µM) | relative viability (EHT 1864 + Alpelisib; first compound 0.04 µM) | relative viability (EHT 1864 + Alpelisib; first compound 0.1265 µM) | relative viability (EHT 1864 + Alpelisib; first compound 0.4 µM) | relative viability (EHT 1864 + Alpelisib; first compound 1.265 µM) | relative viability (EHT 1864 + Alpelisib; first compound 4 µM)
NCI-H1666 | 0.887 | 0.691 | 0.8 | 0.81 | 0.833 | 0.822 | 0.484 | 0.584 | 0.775 | 0.841 | 0.828 | 0.74 | 0.837 | 0.73 | 0.912 | 0.898 | 1.12 | 0.978 | 0.98 | 0.966
NCI-H1734 | 0.706 |  | 0.611 | 0.66 | 0.592 | 1.08 | 0.86 | 1.09 | 1.01 | 1.12 | 0.867 | 0.902 | 0.863 | 0.919 | 0.77 | 0.741 | 0.629 | 0.627 | 0.609 | 0.64
NCI-H1755 | 0.779 | 0.619 | 0.691 | 0.619 | 0.618 | 1.08 | 0.866 | 1.04 | 0.998 | 1.05 | 0.983 | 0.907 | 0.956 | 0.927 | 0.962 | 0.897 | 0.844 | 0.861 | 0.945 | 0.877
NCI-H1792 | 0.67 | 0.65 | 0.717 | 0.689 | 0.68 | 0.864 | 0.777 | 0.926 | 0.882 | 0.928 | 0.514 | 0.376 | 0.556 | 0.57 | 0.628 | 0.664 | 0.584 | 0.627 | 0.72 | 0.792
NCI-H1793 | 0.226 |  | 0.313 |  | 0.262 |  | 0.543 | 0.667 | 0.602 | 0.638 |  | 0.775 | 0.888 | 0.696 | 0.984 |  | 0.635 | 0.815 | 0.847 | 0.7
NCI-H1915 | 0.657 |  | 0.641 | 0.599 | 0.545 | 1.03 |  | 0.993 | 0.937 | 0.902 | 1.13 |  | 1.04 | 1.1 | 1.08 | 1.12 |  | 0.988 | 1.05 | 1.05
NCI-H1944 | 0.44 |  | 0.443 | 0.417 | 0.399 | 0.907 |  | 0.916 | 0.858 | 0.817 | 1.28 |  | 1.21 | 1.25 | 1.25 | 0.828 |  | 0.805 | 0.803 | 0.984
NCI-H1975 | 0.709 | 0.668 | 0.667 |  | 0.591 | 0.868 | 0.9 | 0.802 | 0.837 | 0.856 | 0.956 | 0.967 | 0.955 | 0.811 | 0.835 | 0.628 | 0.614 | 0.6 | 0.618 | 0.572
NCI-H1993 | 0.548 |  | 0.541 | 0.554 | 0.553 | 0.918 | 0.812 | 0.806 | 0.864 | 0.858 | 0.735 | 0.757 | 0.709 | 0.778 | 0.695 | 0.733 | 0.658 | 0.568 | 0.679 | 0.732
